Reference: paper PMC8160210, “Single tryptophan Y160W mutant of homooligomeric E. coli purine nucleoside phosphorylase implies that dimers forming the hexamer are functionally not equivalent” (Scientific Reports, 2021)
Read-outs that look alike come from different tables or passages of the source.

Key:
Y160W mutant/Pi complex = molecular target: T1, Y160W mutant/Pi complex (Escherichia coli, UniProt P0ABP8, Y161W); experiment: Thermophoretic (MST) titrations with formycin A; set-up: species or system E. coli
T1 construct: made in house; host or cells: E. coli DH5α-T1
Method: (§1) Measurements were performed with Monolith NT115 (NanoTemper). Enzyme was labelled with NT647 fluorescent dye (NanoTemper) according to the protocol provided by the manufacturer. Labelled proteins show fluorescence excitation and emission maxima of approximately 650 and 670 nm, respectively. The series of titrations were performed at a constant protein concentration. Both proteins (WT and mutant), and ligands were dissolved in 50 mM Tris/HCl pH 7.6 buffer, measurements were performed at 25 °C. […] In the pre-experiments, it was carefully checked for both proteins, WT and Y160W mutant whether any sign of aggregation or inactivation occurs, and if mutant behaviour is similar to that of the WT enzyme. An example of the raw thermophoretic curves obtained with the relative heating laser power at 60% and 80% are shown in the Supplementary Information (Figure S7).
(§2) Experiments of the nucleoside analogue binding were performed in the presence of saturating concentration of phosphate, i.e. 50 mM. For both, WT PNP and Y160W mutant seven repetitions of each curve were measured, for a single power of the heating laser. The power of the heating laser at which the strongest change of the thermophoretic signal upon ligand binding occurs was selected, namely 80% for both enzyme variants. The raw MST traces, for two highest tested laser powers, 60% and 80%, are presented in the Supplementary information (Figure S7) Protein concentration in the capillary was constant and equal to 0.215 μM and 0.0751 μM for the WT protein and the Y160W mutant, respectively. Series of titrations were analysed globally using the DynaFit4 program[40] (see below).
(§3) Three models were taken into account in analysis of binding curves: model with one (first equation below), two (first two equations) and three binding sites. P+L⇔PLwithKd1PL+L⇔PLLwithKd2PLL+L⇔PLLLwithKd3
(§4) The model with one binding site is based on the assumption that all monomers are equivalent, and there is no cooperation between them. In the model with two binding sites the basic functional unit of the protein is a dimer, possible non-equivalence of binding sites or cooperativity between active sites in the dimer are taken into account (in the case of no cooperativity dissociation constants should be related statistically: Kd2 = 4Kd1), the dimers within hexamer are equivalent. The model with three binding sites is based on the crystallographic structures of binary and ternary complexes of PNP with ligands, where two of the dimers are in the “open-closed” conformation, but the third dimer is symmetrical, in the “open-open” conformation. Thus, active sites in the open conformation belonging to “open-closed” and “open-open” dimer may not be equivalent. […]
(§5) Titration series were analysed globally, always starting from the simplest, one-binding-site model. […] For all tested models the Akaike information criterion[23] was also calculated. […] Analysed models were fitted to the raw data, whereas graphs presented in this study were prepared from the normalised data and the fitted curves. […] Responses are defined as changes in a measured physical quantity related to the formation of subsequent protein–ligand complexes: intrinsic protein fluorescence intensity, fluorescence intensity of the dye, heat and ellipticity for fluorimetric, thermophoretic, calorimetric and CD titrations, respectively. […]

WT PNP/Pi complex = molecular target: T2, WT PNP/Pi complex (Escherichia coli, UniProt P0ABP8); experiment: Thermophoretic (MST) titrations with formycin A; set-up: species or system E. coli; conditions: two-binding-site model, 50 mM phosphate, pH 7.6, 25 °C
T2 construct: made in house
Method: as §1, §2, §3, §4, §5

WT E. coli PNP = molecular target: T3, WT E. coli PNP (Escherichia coli, UniProt P0ABP8); experiment: Inhibition of m^7Guo phosphorolysis; assay type: biochemical; conditions: competitive inhibition Eq. (3), m^7Guo as variable substrate, 50 mM phosphate, pH 7.0, 25 °C
T3 construct: made in house
T3 sequence (P0ABP8 2-239 limits assumed): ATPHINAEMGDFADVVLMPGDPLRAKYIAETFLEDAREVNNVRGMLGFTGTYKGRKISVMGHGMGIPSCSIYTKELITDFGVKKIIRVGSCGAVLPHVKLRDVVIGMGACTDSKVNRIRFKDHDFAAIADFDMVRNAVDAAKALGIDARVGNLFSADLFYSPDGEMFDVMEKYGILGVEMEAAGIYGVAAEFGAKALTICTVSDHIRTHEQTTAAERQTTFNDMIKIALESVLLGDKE
Method: All activity measurements and kinetic studies were done in 50 mM Hepes/HCl buffer pH 7.0 at 25 °C as previously described for the WT E. coli PNP and its active-site mutants, using direct spectrophotometric assay for adenosine, guanosine and 7-methylguanosine as substrates, and a coupled assay with xanthine oxidase in the case of inosine[13],[28],[29]. Activity measurements were performed for each protein sample, before and after each experiment as a control of the state of the protein.
To determine inhibition model and inhibition constant for formycin A, rate of phosphorolysis with m^7Guo as a variable substrate, at constant, 50 mM, phosphate concentration, was registered in the absence of the inhibitor and in the presence of two different concentrations of formycin. A global fitting to the whole data set was performed, using various models (competitive, uncompetitive, noncompetitive, mixed). As expected for the substrate analogue, competitive model described the data sufficiently well:3 v0c0=Vmax1c0/c0+KM1+ci/Ki where ci is inhibitor concentration. Kinetic data were analysed using the GraphPad Prism program (Intuitive Software for Science, San Diego, CA, USA).

T1 sequence (P0ABP8 2-239 Y161W, one chain of several): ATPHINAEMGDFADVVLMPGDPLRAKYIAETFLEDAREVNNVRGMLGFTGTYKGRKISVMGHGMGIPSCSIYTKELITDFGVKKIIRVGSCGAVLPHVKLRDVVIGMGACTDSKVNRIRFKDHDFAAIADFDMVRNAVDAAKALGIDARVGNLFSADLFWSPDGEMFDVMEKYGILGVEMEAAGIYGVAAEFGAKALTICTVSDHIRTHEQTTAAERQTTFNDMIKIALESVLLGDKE

## Nc1ncnc2c([C@@H]3O[C@H](CO)[C@@H](O)[C@H]3O)[nH]nc12 [FA, Formycin A]
Y160W mutant/Pi complex; Kd1 ± SD, three-binding-site model, 50 mM phosphate, pH 7.6, 25 °C
  Kd: 0.137 µM
Y160W mutant/Pi complex; Kd3 ± SD, three-binding-site model, 50 mM phosphate, pH 7.6, 25 °C
  Kd: 1750 µM
Y160W mutant/Pi complex; read-out: Kd2 ± SD, three-binding-site model, 50 mM phosphate, pH 7.6, 25 °C
  Kd: 110 µM
WT PNP/Pi complex; Kd1 ± SD
  Kd: 0.0107 µM
WT PNP/Pi complex; Kd3 ± SD
  Kd: 186 µM
WT E. coli PNP
  Ki: 5.3 ± 0.4 µM
